For three compounds, IC50 results are on record in PMC5241873, “The clinically approved antiviral drug sofosbuvir inhibits Zika virus replication” (Scientific Reports, 2017).

As a reminder, the IC50 is the concentration that gives 50% inhibition.

SMILES strings stand for the structures. A value given as a limit tells only on which side of the number the result lay.

The subject of assay [1] is T1, ZIKV RNA polymerase (ZVRP), partially purified from ZIKV-infected BHK-21 cells.
T1 construct: gene NS5; mature NS5 from the genome polyprotein; native, partially purified from infected BHK-21 cells (100,000 x g supernatant, DEAE- and phospho-cellulose)
Briefly: RdRp assay, labelled UTP incorporation on ZIKV RNA, ALPHA detection. It counts as biochemical, Zika virus. To be noted: 0.4 mM each ATP, GTP, CTP and labelled UTP; 3 mM MgCl2; pH 7.3; 30 °C; 1 h; partially purified enzyme.

Assay [2] has as its system T2, recombinant ZVRP (C-terminal portion).
T2 construct: gene NS5; pET-41b+ BamHI/SacI, N-terminal GST tag, E. coli BL21; B3U3M3 is printed for the 3D model only
The description is as above. It counts as biochemical, Zika virus. To be noted: 0.4 mM each ATP, GTP, CTP and labelled UTP; 3 mM MgCl2; pH 7.3; 30 °C; 1 h.

Take `Cc1cn([C@H]2C[C@H](N=[N+]=[N-])[C@@H](COP(=O)(O)OP(=O)(O)OP(=O)(O)O)O2)c(=O)[nH]c1=O` [AZT-TP, AZT triphosphate]: the IC50 in assay [1] and in assay [2] was above 10000 nM throughout.

For the compound `C[C@@]1(F)[C@H](O)[C@@H](COP(=O)(O)OP(=O)(O)OP(=O)(O)O)O[C@H]1n1ccc(=O)[nH]c1=O` [STP, β-d-2′-deoxy-2′-α-fluoro-2′-β-C-methyluridine triphosphate], the IC50 was 380 ± 30 nM in assay [1] and 610 ± 80 nM in assay [2].

Turning to `NC(=O)c1ncn([C@@H]2O[C@H](COP(=O)(O)OP(=O)(O)OP(=O)(O)O)[C@@H](O)[C@H]2O)n1` [RTP, ribavirin triphosphate], the IC50 was 210 ± 60 nM in assay [1] and 620 ± 50 nM in assay [2].
